This passage reports MIC results from patent US9969758B2, “Antimicrobial compounds” (BIOMERIEUX, priority 2014, dated 2018).

What all share (assay): MIC by agar dilution, single strains
Holding throughout (assay type): cell-based
For orientation: In agar dilution, organisms are placed on agar that contains the substance at set levels.

In assay [1] the test system is Yersinia enterocolitica NCTC 11176. The following applies: NCTC11176, 22 hours of incubation, read-out: Minimum inhibitory concentration (MIC). As to the method:
(§1) Determining the minimum inhibitory concentrations (MIC). All the MICs were determined using an agar dilution method. This required use of a medium without a defined antagonist (peptone-free), prepared as described previously with the inclusion of 2% horse blood lysed with saponin, 25.0 μg/mL of NAD and 25.0 μg/mL of hemin [17]. The compounds tested were dissolved in sterile deionised water and incorporated into the agar medium in a concentration range of 0.0031 to 8.0 μg/mL (0.016 to 32 μg/mL for gram-positive bacteria). All the isolates were prepared at a density equivalent to 0.5 McFarland units in sterile deionised water using a densitometer (approximately 1.5×10^8 CFU/mL), and then diluted to 1 for 15. An aliquot of 1 μL of each diluted suspension was then placed onto plates with a multispot inoculator to give the final recommended inoculation of 10 000 CFU/spot. The MICs of fosfomycin were determined by the same method, except that the IsoSensitest medium (Oxoid, Basingstoke, United Kingdom) was used, plus 25.0 μg/mL of glucose-6-phosphate (Sigma, Poole, United Kingdom) and an extended range of fosfomycin concentrations. All the dishes (including the antimicrobial-free controls) were incubated for 22 hours at 37° C. All the tests were performed on at least two independent replicates in order to examine the reproducibility.

For assay [2], the system named is Enterococcus faecalis NCTC 775. To be noted: NCTC775, 22 hours of incubation, read-out: Minimum inhibitory concentration (MIC). As to the method: as §1
Assay [3] concerns Salmonella typhimurium NCTC 74. To be noted: Salmonella enterica, 22 hours of incubation, read-out: Minimum inhibitory concentration (MIC). As to the method: as §1
In assay [4] the test system is Enterobacter cloacae NCTC 11936. To be noted: NCTC11936, 22 hours of incubation, read-out: Minimum inhibitory concentration (MIC). As to the method:
as §1

Assay [5] deals with Salmonella enteritidis NCTC 6676. The following applies: Salmonella enterica, 22 hours of incubation, read-out: Minimum inhibitory concentration (MIC). As to the method: as §1
The subject of assay [6] is Listeria monocytogenes NCTC 11994. To be noted: NCTC11994, 22 hours of incubation, read-out: Minimum inhibitory concentration (MIC). As to the method:
as §1

In assay [7] the test system is Acinetobacter baumannii ATCC 19606. The following applies: ATCC19606, 22 hours of incubation, read-out: Minimum inhibitory concentration (MIC). As to the method: as §1
The subject of assay [8] is Staphylococcus aureus NCTC 6571. To be noted: NCTC6571, 22 hours of incubation, read-out: Minimum inhibitory concentration (MIC). As to the method: as §1
Assay [9] deals with Serratia marcescens NCTC 10211. The following applies: NCTC10211, 22 hours of incubation, read-out: Minimum inhibitory concentration (MIC). As to the method: as §1
For assay [10], the system named is Pseudomonas aeruginosa NCTC 10662. The following applies: NCTC10662, 22 hours of incubation, read-out: Minimum inhibitory concentration (MIC). As to the method: as §1
In assay [11] the test system is Providencia rettgeri NCTC 7475. The following applies: NCTC7475, 22 hours of incubation, read-out: Minimum inhibitory concentration (MIC). As to the method:
as §1

Assay [12] relates to Escherichia coli NCTC 12241. The following applies: NCTC12241, 22 hours of incubation, read-out: Minimum inhibitory concentration (MIC). As to the method:
as §1

The test system of assay [13] is Klebsiella pneumoniae NCTC 9528. The following applies: NCTC9528, 22 hours of incubation, read-out: Minimum inhibitory concentration (MIC). As to the method: as §1
For assay [14], the system named is Escherichia coli NCTC 10418. To be noted: NCTC10418, 22 hours of incubation, read-out: Minimum inhibitory concentration (MIC). As to the method:
as §1

In assay [15] the test system is Burkholderia cepacia ATCC 25416. The following applies: ATCC25416, 22 hours of incubation, read-out: Minimum inhibitory concentration (MIC). As to the method: as §1
Assay [16] has as its system Staphylococcus aureus NCTC 11939 (SARM). The following applies: NCTC11939, 22 hours of incubation, read-out: Minimum inhibitory concentration (MIC). As to the method:
as §1

For assay [17], the system named is Enterococcus faecium NCTC 7171. To be noted: NCTC7171, 22 hours of incubation, read-out: Minimum inhibitory concentration (MIC). As to the method:
as §1

Assay [18] concerns Staphylococci epidermidis NCTC 11047. To be noted: 22 hours of incubation, read-out: Minimum inhibitory concentration (MIC). As to the method: as §1

In brackets after ≈: the same amount, converted by molar mass.

On to `CCC[C@H](N)C(=O)N[C@@H](C)C(=O)NC(C)P(=O)(O)O` (stereo partly drawn) [compound I, L-norvalinyl-L-alanyl-D/L-fosfalin], for which the MIC in [1] is 0.125 µg/mL (≈ 0.423 µM); in assay [2], 0.063 µg/mL (≈ 0.213 µM); in assay [3], > 8 µg/mL; in assay [4], > 8 µg/mL; in assay [5], > 8 µg/mL; in assay [6] it was > 8 µg/mL. For the same compound, the MIC is > 8 µg/mL in assay [7]; 1 µg/mL (≈ 3.39 µM) in [8]; 0.25 µg/mL (≈ 0.847 µM) in assay [9]; > 8 µg/mL in [10]; > 8 µg/mL in assay [11]; 1 µg/mL (≈ 3.39 µM) in [12]. Also, the MIC in [13] is 0.25 µg/mL (≈ 0.847 µM); in assay [14], 1 µg/mL (≈ 3.39 µM); in assay [15] it was > 8 µg/mL; in [16] it was > 8 µg/mL; in [17], 1 µg/mL (≈ 3.39 µM); in [18], 1 µg/mL (≈ 3.39 µM).
